Data on one compound can be found in patent US8889591B2, “Herbicidal compositions comprising 4-amino-3-chloro-5-fluoro-6-(4-chloro-2-fluoro-3-methoxyphenyl)pyridine-2-carboxylic acid or a derivative thereof and bromobutide, daimuron, oxaziclomefone or pyributicarb” (Dow Agrosciences LLC, priority 2012, dated 2014).

Assay [1] deals with SCPJU. Description: Postemergence foliar-applied greenhouse weed control, direct-seeded rice system. In kind it is in vivo, Schoenoplectus juncoides (Roxb.) Palla. From the text:
Seeds or nutlets of the desired test plant species were planted in a soil matrix prepared by mixing a loam or sandy loam soil (e.g., 28.6 percent silt, 18.8 percent clay, and 52.6 percent sand, with a pH of about 5.8 and an organic matter content of about 1.8 percent) and calcareous grit in an 80 to 20 ratio. The soil matrix was contained in plastic pots with a volume of 1 quart and a surface area of 83.6 square centimeters (cm^2). When required to ensure good germination and healthy plants, a fungicide treatment and/or other chemical or physical treatment was applied. The plants were grown for 8-22 days in a greenhouse with an approximate 14 h photoperiod which was maintained at about 29° C. during the day and 26° C. during the night. Nutrients (Peters Excel® 15-5-15 5-Ca 2-Mg and iron chelate) were applied in the irrigation solution as needed and water was added on a regular basis. Supplemental lighting was provided with overhead metal halide 1000-Watt lamps as necessary. The plants were employed for testing when they reached the first through fourth true leaf stage. […]
Treatment requirements were calculated based upon the rates being tested, the concentration of active ingredient or acid equivalent in the formulation, and a 12 mL application volume at a rate of 187 L/ha.
For treatments comprised of formulated compounds, measured amounts of compounds were placed individually in 25 mL glass vials and diluted in a volume of 1.25% (v/v) Agri-Dex® crop oil concentrated to obtain 12× stock solutions. […]
For treatments comprised of formulated and technical compounds, weighed amounts of the technical materials were placed individually in 25 mL glass vials and dissolved in a volume of 97:3 v/v acetone/DMSO to obtain 12× stock solutions, and measured amounts of the formulated compounds were placed individually in 25 mL glass vials and diluted in a volume of 1.5% (v/v) crop oil concentrate or water to obtain 12× stock solutions. […]

Assay [2] has as its system ECHOR. Kind of assay: In-water applied greenhouse weed control, transplanted paddy rice system. In kind it is in vivo, Echinochloa oryzoides (Ard.) Fritsch. Conditions: in-water application. As for the experimental part: Weed seeds or nutlets of the desired test plant species were planted in puddled soil (mud) prepared by mixing a shredded, non-sterilized mineral soil (50.5 percent silt, 25.5 percent clay, and 24 percent sand, with a pH of about 7.6 and an organic matter content of about 2.9 percent) and water at a 1:1 volumetric ratio. The prepared mud was dispensed in 365 mL aliquots into 16-ounce (oz.) non-perforated plastic pots with a surface area of 86.59 square centimeters (cm^2) leaving a headspace of 3 centimeters (cm) in each pot. Mud was allowed to dry overnight prior to planting or transplanting. Rice seeds were planted in Sun Gro MetroMix® 306 planting mixture, which typically has a pH of 6.0 to 6.8 and an organic matter content of about 30 percent, in plastic plug trays. Seedlings at the second or third leaf stage of growth were transplanted into 840 mL of mud contained in 32-oz. non-perforated plastic pots with a surface area of 86.59 cm^2 4 days prior to herbicide application. The paddy was created by filling the headspace of the pots with 2.5 to 3 cm of water. When required to ensure good germination and healthy plants, a fungicide treatment and/or other chemical or physical treatment was applied. The plants were grown for 4-22 days in a greenhouse with an approximate 14 h photoperiod which was maintained at about 29° C. during the day and 26° C. during the night. Nutrients were added as Osmocote® (19:6:12, N:P:K+ minor nutrients) at 2 g per 16-oz. pot and 4 g per 32-oz. pot. Water was added on a regular basis to maintain the paddy flood, and supplemental lighting was provided with overhead metal halide 1000-Watt lamps as necessary. The plants were employed for testing when they reached the first through fourth true leaf stage.
Treatments consisted of the acid or esters of 4-amino-3-chloro-5-fluoro-6-(4-chloro-2-fluoro-3-methoxy-phenyl)pyridine-2-carboxylic acid (compound A) each formulated as an SC and various herbicidal components alone and in combination. Forms of compound A were applied on an acid equivalent basis.
Other herbicidal components were applied on an active ingredient basis and included daimuron formulated as an EC, bromobutide (technical grade material), and oxaziclomefone (technical grade material).
Treatment requirements for each compound or herbicidal component were calculated based upon the rates being tested, the concentration of active ingredient or acid equivalent in the formulation, an application volume of 2 mL per component per pot, and an application area of 86.59 cm^2 per pot.
For formulated compounds, a measured amount was placed in an individual 100 or 200 mL glass vial and was dissolved in a volume of 1.25% (v/v) Agri-Dex® crop oil concentrate to obtain application solutions.
For technical grade compounds, a weighed amount was placed in an individual 100 to 200 mL glass vial and was dissolved in a volume of acetone to obtain concentrated stock solutions. […] The concentrated stock solutions obtained were diluted with an equivalent volume of an aqueous mixture containing 2.5% (v/v) crop oil concentrate so that the final application solutions contained 1.25% (v/v) crop oil concentrate.
Applications were made by injecting, with a pipetter, appropriate amounts of the application solutions, individually and sequentially, into the aqueous layer of the paddy. Control plants were treated in the same manner with the solvent blank. Applications were made so that all treated plant material received the same concentrations of acetone and crop oil concentrate.
The treated plants and control plants were placed in a greenhouse as described above and water was added as needed to maintain a paddy flood. After approximately 3 weeks the condition of the test plants as compared with that of the untreated plants was determined visually and scored on a scale of 0 to 100 percent where 0 corresponds to no injury or growth inhibition and 100 corresponds to complete kill. […]

On to `COc1c(Cl)ccc(-c2nc(C(=O)OCc3ccccc3)c(Cl)c(N)c2F)c1F` [Compound A Benzyl Ester], for which the “Visual Weed Control (%) - 22 DAA SCPJU Obs” value in assay [1] (Compound A Benzyl Ester 4.38 gae/ha alone) amounted to 75%; in assay [1] (Compound A Benzyl Ester 8.75 gae/ha alone), 80%. In addition, the figures for the “Visual Weed Control (%) - 21 DAA ECHOR Obs” value in assay [2] (Compound A Benzyl Ester 8 gae/ha alone), in assay [2] (Compound A Benzyl Ester 16 gae/ha alone) and in assay [2] (Compound A Benzyl Ester 32 gae/ha alone) were 8%, 5% and 13%, respectively.
